In patent publication US6310247A, “7-aryl-6(Z)-heptatrienoic acid retinamides” (Hoffmann-LA Roche Inc., priority 1999, dated 2001):
Like-named read-outs stand apart in the source and are kept apart here.

Experiments:
Type in all cases: cell-based
MDA 231 cells = experiment: Cell growth inhibition: MTT assay, MDA 231 (ER- breast carcinoma); details: Homo sapiens, MDA-MB-231, read-out: % inhibition of cell growth compared to no drug control
Method: ER- breast carcinoma, human (MDA-231) obtained from ATCC (HTB 22), were grown in Eagle's MEM medium supplemented with non-essential amino acids, sodium pyruvate, and Earle's BSS, 10% FBS, and 13 ng/mL gentamicin. Cells were incubated at 37° C., 4.5% CO2 and 95.5% humidified air.
(§1) 1. Cell growth inhibition: MTT Assay
(§2) The compounds of formula 1 were tested for ability to inhibit cell growth using the standard MTT assay, a tetrazolium-based assay which measures the viability of cells in culture. Cells were harvested upon reaching 70-80% confluency and pelleted. The cells were then resuspended in medium in which FBS was replaced with Hyclone's Charcoal/Dextran stripped FBS, and seeded (2 mL/well) into 6-well plates (Corning) at a density allowing for linear growth over a four day assay period. Compounds of formula 1 (10 mM stock in dimethylsulfoxide (DMSO)) were added 18-24 hours post-seeding. Compound dilutions were prepared in the appropriate growth media and added to the cells for final concentrations of 10, 3.3 and 1 μM in 0.1% DMSO. At 24, 48 and 72 hr. time points, MTT (3-[4,5-dimethylthiazol-2-yl-2,5-diphenyltetrazolium bromide) stock solution (5mg/mL in 1 PBS) was added to the cells plates (625 μL/well) which were then incubated for 2.5 hours. Liquid was aspirated from the wells and 1 mL/well of 95% ethanol was added to solubilize the formazan reaction product. The plates were shaken (Bellco Mini-Orbital Shaker) for 15 minutes. The solubilized formazan was then transferred (50 μls) into a 96-well plate and the optical densities (OD) were measured (Bio-Tek Microplate Reader) at 570 nm and reference wavelength of 660 nm. Percentage of inhibition of cell growth was calculated according to the following formula: [formula]

MDA 435 cells = experiment: Cell growth inhibition: MTT assay, MDA 435 (ER- breast carcinoma); details: Homo sapiens, MDA435, read-out: % inhibition of cell growth compared to no drug control
Method: ER- breast carcinoma, human (MDA-435) obtained from Dr. Janet Price, MDA Cancer Center, Houston, Tex., were grown in Gibco's RPMI 1640 media supplemented with sodium pyruvate, 10% FBS and 13 ng/mL gentamicin. Cells were incubated at 37° C., 4.5% CO2 and 95.5% humidified air.
as §1, §2

ZR-75-1 cells = experiment: Cell growth inhibition: MTT assay, ZR-75-1 (ER+ breast carcinoma); details: Homo sapiens, read-out: % inhibition of cell growth compared to no drug control
Method: ER+ breast carcinoma, human (ZR-75-1) obtained from ATCC (CRL 1500), were grown in Gibco's RPMI 1640 media supplemented with sodium pyruvate, 10% FBS and 13 ng/mL gentamicin. Cells were incubated at 37° C., 4.5% CO2 and 95.5% humidified air.
as §1, §2

| SMILES | inhibition at 1 µM (MDA 231 cells; 24 hours) | inhibition at 3.3 µM (MDA 231 cells; 24 hours) | inhibition at 10 µM (MDA 231 cells; 24 hours) | inhibition at 1 µM (MDA 231 cells; 48 hours) | inhibition at 3.3 µM (MDA 231 cells; 48 hours) | inhibition at 10 µM (MDA 231 cells; 48 hours) | inhibition at 1 µM (MDA 231 cells; 72 hours) | inhibition at 3.3 µM (MDA 231 cells; 72 hours) | inhibition at 10 µM (MDA 231 cells; 72 hours) | inhibition at 1 µM (MDA 435 cells; 24 hours) | inhibition at 3.3 µM (MDA 435 cells; 24 hours) | inhibition at 10 µM (MDA 435 cells; 24 hours) | inhibition at 1 µM (MDA 435 cells; 48 hours) | inhibition at 3.3 µM (MDA 435 cells; 48 hours) | inhibition at 10 µM (MDA 435 cells; 48 hours) | inhibition at 1 µM (MDA 435 cells; 72 hours) | inhibition at 3.3 µM (MDA 435 cells; 72 hours) | inhibition at 10 µM (MDA 435 cells; 72 hours) | other results |
| --- | --- | --- | --- | --- | --- | --- | --- | --- | --- | --- | --- | --- | --- | --- | --- | --- | --- | --- | --- |
| C/C(=C/C=C/C(C)=C/C(=O)Nc1ccc(O)cc1)c1cc(Br)cc(Br)c1 [N-(4-hydroxyphenyl)-(2E,4E,6Z)-7-(3,5-dibromophenyl)-3,7-dimethyl-2,4,6-heptatrienamide] | 6% | 65% | 65% | 72% | 81% | 82% | 78% | 86% | 87% | 27% | 28% | 37% | 70% | 66% | 70% | 86% | 88% | 87% |  |
| COc1cc(OC)cc(\C(C)=C/C=C/C(C)=C/C(=O)Nc2ccc(O)cc2)c1 [N-(4-hydroxyphenyl)-(2E,4E,6Z)-7-(3,5-dimethoxyphenyl)-3,7-dimethyl-2,4,6-heptatrienamide] | 18% | 21% | 30% | 30% | 52% | 65% | 25% | 61% | 64% | 21% | 36% | 25% | 64% | 61% | 61% | 86% | 87% | 87% |  |
| C/C(=C/C=C/C(C)=C/C(=O)Nc1ccc(O)cc1)c1cc(C)cc(C)c1 [N-(4-hydroxyphenyl)-(2E,4E,6Z)-7-(3,5-dimethylphenyl)-3,7-dimethyl-2,4,6-heptatrienamide] | 50% | 51% | 58% | 60% | 70% | 72% | 81% | 82% | 85% | 56% | 53% | 53% | 95% | 92% | 98% | 95% | 94% | 91% |  |
| CC(/C=C/C(C)=C/C(=O)Nc1ccc(O)cc1)=C(\C)c1cc(C(F)(F)F)cc(C(F)(F)F)c1 [N-(4-hydroxyphenyl)-(2E,4E,6Z)-7-[3,5-bis(trifluoromethyl)phenyl]-3,6,7-trimethyl-2,4,6-heptatrienamide] | 0% | 0% | 40% | 0% | 0% | 57% | 38% | 48% | 76% | 3% | 67% | 68% | 3% | 95% | 96% | 4% | 98% | 99% | inhibition at 1 µM (ZR-75-1 cells; 48 hours): 3%; inhibition at 3.3 µM (ZR-75-1 cells; 48 hours): 0%; inhibition at 10 µM (ZR-75-1 cells; 48 hours): 60%; inhibition at 1 µM (ZR-75-1 cells; 72 hours): 16%; inhibition at 3.3 µM (ZR-75-1 cells; 72 hours): 10%; inhibition at 10 µM (ZR-75-1 cells; 72 hours): 80% |
| CC(/C=C/C=C\c1cc(C(F)(F)F)cc(C(F)(F)F)c1)=C\C(=O)Nc1ccc(O)cc1 [N-(4-hydroxyphenyl)-(2E,4E,6Z)-7-[3,5-bis(trifluoromethyl)phenyl]-3-methyl-2,4,6-heptatrienamide] | 22% | 33% | 37% | 42% | 51% | 50% | 50% | 68% | 73% | 19% | 81% | 91% | 45% | 93% | 99% | 73% | 83% | 100% |  |
| C/C(=C/C=C/C(C)=C/C(=O)Nc1ccc(O)cc1)c1ccccc1 [N-(4-hydroxyphenyl)-(2E,4E,6Z)-7-phenyl-3,7-dimethyl-2,4,6-heptatrienamide] | 45% | 57% | 58% | 67% | 80% | 81% | 76% | 87% | 88% | 3% | 3% | 2% | 39% | 40% | 42% | 41% | 51% | 68% |  |
